Experimental findings from ChEMBL document CHEMBL1143423, “In vivo efficacy of moxifloxacin compared with cloxacillin and vancomycin in a Staphylococcus aureus rabbit arthritis experimental model” (Antimicrob Agents Chemother, 2007) are described below.

Converted amounts (≈) assume the structure as drawn.

The subject of data set [1] is Staphylococcus aureus. Nature of the data set: Antibacterial activity against methicillin-sensitive Staphylococcus aureus by broth microdilution technique. The data set is classed as functional. In general terms: Broth dilution looks for growth in wells or tubes with falling amounts of substance.
The test system of data set [2] is Staphylococcus aureus. Nature of the data set: Antibacterial activity against methicillin-sensitive Staphylococcus aureus infected rabbit arthritis model assessed as change in bacterial load per gram of synovial fluid at 50 mg/kg, im administered thrice a day after 7 days by broth microdilution technique. It is filed as functional. To be noted: route intramuscular.

A short description of data set [3]: Drug level in serum of Staphylococcus aureus infected rabbit arthritis model at 50 mg/kg, im administered thrice a day. The data set is classed as ADME, organism-based, Oryctolagus cuniculus. More on the design: dose 50 mg/kg, route intramuscular. To be noted: in vivo.
The test system of data set [4] is Staphylococcus aureus. The data set is described as follows: microbe, parasite or virus in culture.
Description: Antibacterial activity against methicillin-resistant Staphylococcus aureus by broth microdilution technique
A short description of data set [5]: Cmax in human serum at 400 mg, po administered as single dose after 1 hr. More on the design: dose 400 mg, route oral. It is filed as ADME, organism-based.
Data set [6] can be described thus: AUC (0 to 24 hrs) in human serum at 400 mg, po administered as single dose. More on the design: time < 24 hr, dose 400 mg, route oral. It is filed as ADME, organism-based.
Data set [7] can be described thus: Cmax in Staphylococcus aureus infected rabbit arthritis model at 45 mg/kg, po. It is filed as ADME, organism-based, Oryctolagus cuniculus. More on the design: dose 45 mg/kg, route oral. To be noted: in vivo.
Data set [8] can be described thus: AUC (0 to 24 hrs) in Staphylococcus aureus infected rabbit arthritis model at 45 mg/kg, po. The data set is classed as ADME, organism-based, Oryctolagus cuniculus. More on the design: time < 24 hr, dose 45 mg/kg, route oral. To be noted: in vivo.
In data set [9] the test system is Staphylococcus aureus. Nature of the data set: Antibacterial activity against ciprofloxacin and methicillin-resistant Staphylococcus aureus.
A short description of data set [10]: Cmax in human serum at 400 mg, po administered as single dose. It is filed as ADME, organism-based. The note with it: read-out: tCmax.
The nature of data set [11]: Drug level in serum of Staphylococcus aureus infected rabbit arthritis model at 100 mg/kg, iv administered daily. The data set is classed as ADME, organism-based, Oryctolagus cuniculus. Set-up: dose 100 mg/kg, route intravenous. The note with it: in vivo.

For the compound `Cc1onc(-c2ccccc2Cl)c1C(=O)N[C@@H]1C(=O)N2[C@@H]1SC(C)(C)[C@@H]2C(=O)O` [CLOXACILLIN], the MIC amounted to 0.5 µg/mL (≈ 1.15 µM) in the data set on Staphylococcus aureus [1] and 4 µg/mL (≈ 9.18 µM) against Staphylococcus aureus [4]. Also, in the data set on Staphylococcus aureus [2], the deltalog10CFU came to 4.6. The compound further showed a Drug uptake in data set [3] of 0.8 mg/L.
Regarding `COc1c(N2C[C@@H]3CCCN[C@@H]3C2)c(F)cc2c(=O)c(C(=O)O)cn(C3CC3)c12` [MOXIFLOXACIN], the figures for the Cmax in data set [5] and in [7] were 2500 ng/mL and 2850 ng/mL, respectively. Besides, the exposure AUC(0-t) at 24 h amounted to 35000 ng·h/mL in data set [6] and 37500 ng·h/mL in data set [8]. Also, the MIC against Staphylococcus aureus [1] worked out at 0.032 µg/mL (≈ 0.0797 µM); with Staphylococcus aureus [9] it was 0.25 µg/mL (≈ 0.623 µM); in the data set on Staphylococcus aureus [4], 1 µg/mL (≈ 2.49 µM). Further, the Tmax in data set [10] came to 1 h.
Compound `CN[C@H](CC(C)C)C(=O)N[C@H]1C(=O)N[C@@H](CC(N)=O)C(=O)N[C@H]2C(=O)N[C@H]3C(=O)N[C@H](C(=O)N[C@H](C(=O)O)c4cc(O)cc(O)c4-c4cc3ccc4O)[C@H](O)c3ccc(c(Cl)c3)Oc3cc2cc(c3O[C@@H]2O[C@H](CO)[C@@H](O)[C@H](O)[C@H]2O[C@H]2C[C@](C)(N)[C@H](O)[C@H](C)O2)Oc2ccc(cc2Cl)[C@H]1O` [VANCOMYCIN] returned an MIC against Staphylococcus aureus [1] of 0.032 µg/mL (≈ 0.0221 µM). Further, the Drug uptake in [11] worked out at 26.3 mg/L.

In general, Cmax refers to the highest concentration seen after dosing. A word on the AUC(0-t): it is exposure summed from dosing to a finite time, without extrapolation to infinity.
